Laboratory results from ChEMBL document CHEMBL4038324, “Amidoalkylindoles as Potent and Selective Cannabinoid Type 2 Receptor Agonists with in Vivo Efficacy in a Mouse Model of Multiple Sclerosis” (J Med Chem, 2017).

Columns and labels:
[1] = biological target: T1, Cannabinoid receptor 1 (CB1) (Homo sapiens, UniProt P21554); assay: Antagonist activity at human CB1 receptor expressed in CHO cells assessed as inhibition of CP55940-induced Ca2+ flux at 10 uM preincubated for 10 mins followed by agonist addition by Fluor-4 AM dye based assay; format: cell-based; details: CHO cells expressing human CB1 receptor
T1 sequence (P21554 whole entry): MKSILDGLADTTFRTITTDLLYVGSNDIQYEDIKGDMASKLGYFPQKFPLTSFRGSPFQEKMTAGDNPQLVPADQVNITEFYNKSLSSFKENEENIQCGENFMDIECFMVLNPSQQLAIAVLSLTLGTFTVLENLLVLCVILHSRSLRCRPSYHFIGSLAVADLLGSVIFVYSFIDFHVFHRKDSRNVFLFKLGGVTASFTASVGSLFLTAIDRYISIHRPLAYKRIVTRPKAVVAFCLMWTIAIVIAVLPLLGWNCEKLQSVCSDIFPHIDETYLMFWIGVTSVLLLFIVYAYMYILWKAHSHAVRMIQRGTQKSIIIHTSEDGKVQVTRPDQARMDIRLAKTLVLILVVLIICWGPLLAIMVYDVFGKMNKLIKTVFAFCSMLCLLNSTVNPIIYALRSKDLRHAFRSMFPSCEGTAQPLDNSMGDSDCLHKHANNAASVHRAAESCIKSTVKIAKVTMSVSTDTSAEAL

Cannabinoid receptor 2 [2] = biological target: T2, Cannabinoid receptor 2 (Homo sapiens, UniProt P34972); assay: Agonist activity at human CB2 receptor expressed in CHO cells assessed as induction of Ca2+ flux after 10 mins by Fluor-4 AM dye based assay; format: functional, cell-based
T2 sequence (P34972 whole entry): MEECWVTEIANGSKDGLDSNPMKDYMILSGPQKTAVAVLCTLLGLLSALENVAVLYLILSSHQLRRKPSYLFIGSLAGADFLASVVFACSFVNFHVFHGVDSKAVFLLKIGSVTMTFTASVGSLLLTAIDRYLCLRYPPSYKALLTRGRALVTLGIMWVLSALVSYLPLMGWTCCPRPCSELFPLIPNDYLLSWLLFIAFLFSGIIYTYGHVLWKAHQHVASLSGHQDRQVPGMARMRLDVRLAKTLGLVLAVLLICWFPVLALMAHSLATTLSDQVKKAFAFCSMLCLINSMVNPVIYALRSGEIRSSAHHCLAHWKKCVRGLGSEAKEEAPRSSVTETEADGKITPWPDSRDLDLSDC

Cannabinoid receptor 1 [3] = biological target: T3, Cannabinoid receptor 1 (Homo sapiens, UniProt P21554); assay: Agonist activity at human CB1 receptor expressed in CHO cells assessed as induction of Ca2+ flux after 10 mins by Fluor-4 AM dye based assay; format: cell-based
T3 sequence (P21554 whole entry): as the sequence (P21554 whole entry) above

Cannabinoid receptor 2 [4] = biological target: T2, Cannabinoid receptor 2; assay: Agonist activity at human CB2 receptor expressed in CHO cells assessed as induction of Ca2+ flux after 10 mins by Fluor-4 AM dye based assay relative to CP55940; format: functional, cell-based
[5] = biological target: T1, Cannabinoid receptor 1 (CB1); assay: Agonist activity at human CB1 receptor expressed in CHO cells assessed as induction of Ca2+ flux after 10 mins by Fluor-4 AM dye based assay relative to CP55940; format: cell-based; details: CHO cells expressing human CB1 receptor
Cannabinoid receptor 2 [6] = biological target: T2, Cannabinoid receptor 2; assay: Antagonist activity at human CB2 receptor expressed in CHO cells assessed as inhibition of CP55940-induced Ca2+ flux at 10 uM preincubated for 10 mins followed by agonist addition by Fluor-4 AM dye based assay; format: functional, cell-based
Cannabinoid receptor 1 [7] = biological target: T3, Cannabinoid receptor 1; assay: Agonist activity at human CB1 receptor expressed in CHO cells assessed as induction of Ca2+ flux at 10 uM after 10 mins by Fluor-4 AM dye based assay; format: cell-based
Cannabinoid receptor 2 [8] = biological target: T2, Cannabinoid receptor 2; assay: Agonist activity at human CB2 receptor expressed in CHO cells assessed as induction of Ca2+ flux at 10 uM after 10 mins by Fluor-4 AM dye based assay; format: functional, cell-based

O=C(NC12CC3CC(CC(C3)C1)C2)c1cn(CCCCO)c2ccccc12
inhibition at 10 min, 10 µM [1]: < 50% | EC50 (Cannabinoid receptor 2 [2]): 160 nM | EC50 (Cannabinoid receptor 1 [3]): 13000 nM | Emax (Cannabinoid receptor 2 [4]): 68.3% | Emax at 10 min [5]: 58.3% | inhibition (Cannabinoid receptor 2 [6]): < 50%

O=C(NC12CC3CC(CC(C3)C1)C2)c1c(F)c2ccccc2n1CCCCO
inhibition at 10 min, 10 µM [1]: < 50% | EC50 (Cannabinoid receptor 2 [2]): 410 nM | Emax (Cannabinoid receptor 2 [4]): 46.7% | inhibition (Cannabinoid receptor 2 [6]): < 50% | Activity (Cannabinoid receptor 1 [7]): < 50%

Cc1cccc2c(C(=O)NC34CC5CC(CC(C5)C3)C4)c[nH]c12
inhibition at 10 min, 10 µM [1]: < 50% | EC50 (Cannabinoid receptor 2 [2]): 500 nM | Emax (Cannabinoid receptor 2 [4]): 60% | inhibition (Cannabinoid receptor 2 [6]): < 50% | Activity (Cannabinoid receptor 1 [7]): < 50%

N#CCCn1c(C(=O)NC23CC4CC(CC(C4)C2)C3)cc2ccccc21
inhibition at 10 min, 10 µM [1]: < 50% | EC50 (Cannabinoid receptor 2 [2]): 150 nM | Emax (Cannabinoid receptor 2 [4]): 93.3% | inhibition (Cannabinoid receptor 2 [6]): < 50% | Activity (Cannabinoid receptor 1 [7]): < 50%

O=C(NC12CC3CC(CC(C3)C1)C2)c1cc2ccccc2n1CCCO
inhibition at 10 min, 10 µM [1]: < 50% | EC50 (Cannabinoid receptor 2 [2]): 160 nM | Emax (Cannabinoid receptor 2 [4]): 86.7% | inhibition (Cannabinoid receptor 2 [6]): < 50% | Activity (Cannabinoid receptor 1 [7]): < 50%

O=C(NC12CC3CC(CC(C3)C1)C2)c1cn(CC2CCOCC2)c2ccccc12
inhibition at 10 min, 10 µM [1]: < 50% | EC50 (Cannabinoid receptor 2 [2]): 38 nM | EC50 (Cannabinoid receptor 1 [3]): 84 nM | Emax (Cannabinoid receptor 2 [4]): 76.7% | Emax at 10 min [5]: 133% | inhibition (Cannabinoid receptor 2 [6]): < 50%

CCCCCn1c(C(=O)NC23CC4CC(CC(C4)C2)C3)cc2ccccc21
inhibition at 10 min, 10 µM [1]: < 50% | EC50 (Cannabinoid receptor 2 [2]): 720 nM | Emax (Cannabinoid receptor 2 [4]): 53.3% | inhibition (Cannabinoid receptor 2 [6]): < 50% | Activity (Cannabinoid receptor 1 [7]): < 50%

O=C(NC12CC3CC(CC(C3)C1)C2)c1c(F)c2ccccc2n1CCCCCO
inhibition at 10 min, 10 µM [1]: < 50% | EC50 (Cannabinoid receptor 2 [2]): 610 nM | Emax (Cannabinoid receptor 2 [4]): 60% | inhibition (Cannabinoid receptor 2 [6]): < 50% | Activity (Cannabinoid receptor 1 [7]): < 50%

COc1cccc2c1c(C(=O)NC13CC4CC(CC(C4)C1)C3)cn2CCN1CCOCC1
Activity (Cannabinoid receptor 2 [8]): < 50% | inhibition at 10 min, 10 µM [1]: < 50% | inhibition (Cannabinoid receptor 2 [6]): < 50% | Activity (Cannabinoid receptor 1 [7]): < 50%

O=C(NC12CC3CC(CC(C3)C1)C2)c1cc2ccccc2n1CC1CCOCC1
inhibition at 10 min, 10 µM [1]: < 50% | EC50 (Cannabinoid receptor 2 [2]): 410 nM | Emax (Cannabinoid receptor 2 [4]): 41.7% | inhibition (Cannabinoid receptor 2 [6]): < 50% | Activity (Cannabinoid receptor 1 [7]): < 50%

N#CCCCCn1c(C(=O)NC23CC4CC(CC(C4)C2)C3)cc2ccccc21
inhibition at 10 min, 10 µM [1]: < 50% | EC50 (Cannabinoid receptor 2 [2]): 75 nM | Emax (Cannabinoid receptor 2 [4]): 41.7% | inhibition (Cannabinoid receptor 2 [6]): < 50% | Activity (Cannabinoid receptor 1 [7]): < 50%

O=C(O)CCCCn1c(C(=O)NC23CC4CC(CC(C4)C2)C3)cc2ccccc21
inhibition at 10 min, 10 µM [1]: < 50% | EC50 (Cannabinoid receptor 2 [2]): 7130 nM | Emax (Cannabinoid receptor 2 [4]): 43.3% | inhibition (Cannabinoid receptor 2 [6]): < 50% | Activity (Cannabinoid receptor 1 [7]): < 50%

N#CCCCn1c(C(=O)NC23CC4CC(CC(C4)C2)C3)cc2ccccc21
inhibition at 10 min, 10 µM [1]: < 50% | EC50 (Cannabinoid receptor 2 [2]): 270 nM | Emax (Cannabinoid receptor 2 [4]): 61.7% | inhibition (Cannabinoid receptor 2 [6]): < 50% | Activity (Cannabinoid receptor 1 [7]): < 50%

COc1ccc2c(c1)c(C(=O)NC13CC4CC(CC(C4)C1)C3)cn2CCN1CCOCC1
Activity (Cannabinoid receptor 2 [8]): < 50% | inhibition at 10 min, 10 µM [1]: < 50% | inhibition (Cannabinoid receptor 2 [6]): < 50% | Activity (Cannabinoid receptor 1 [7]): < 50%

O=C(NC12CC3CC(CC(C3)C1)C2)c1c[nH]c2ccccc12
inhibition at 10 min, 10 µM [1]: < 50% | EC50 (Cannabinoid receptor 2 [2]): 630 nM | Emax (Cannabinoid receptor 2 [4]): 75% | inhibition (Cannabinoid receptor 2 [6]): < 50% | Activity (Cannabinoid receptor 1 [7]): < 50%

N#CCCCCn1c(C(=O)Nc2ccccc2)cc2ccccc21
inhibition at 10 min, 10 µM [1]: < 50% | EC50 (Cannabinoid receptor 2 [2]): 200 nM | Emax (Cannabinoid receptor 2 [4]): 48.3% | inhibition (Cannabinoid receptor 2 [6]): < 50% | Activity (Cannabinoid receptor 1 [7]): < 50%

CC(C)(C)NC(=O)c1cc2ccccc2n1CCCCCO
inhibition at 10 min, 10 µM [1]: < 50% | EC50 (Cannabinoid receptor 2 [2]): 430 nM | Emax (Cannabinoid receptor 2 [4]): 51.7% | inhibition (Cannabinoid receptor 2 [6]): < 50% | Activity (Cannabinoid receptor 1 [7]): < 50%

O=C(NC12CC3CC(CC(C3)C1)C2)c1cc2ccccc2n1CCCC(F)(F)F
inhibition at 10 min, 10 µM [1]: < 50% | EC50 (Cannabinoid receptor 2 [2]): 490 nM | Emax (Cannabinoid receptor 2 [4]): 63.3% | inhibition (Cannabinoid receptor 2 [6]): < 50% | Activity (Cannabinoid receptor 1 [7]): < 50%

O=C(NC12CC3CC(CC(C3)C1)C2)c1[nH]c2ccccc2c1F
inhibition at 10 min, 10 µM [1]: < 50% | EC50 (Cannabinoid receptor 2 [2]): 3800 nM | Emax (Cannabinoid receptor 2 [4]): 83.3% | inhibition (Cannabinoid receptor 2 [6]): < 50% | Activity (Cannabinoid receptor 1 [7]): < 50%

O=C(NC12CC3CC(CC(C3)C1)C2)c1cc2ccccc2[nH]1
inhibition at 10 min, 10 µM [1]: < 50% | EC50 (Cannabinoid receptor 2 [2]): 980 nM | Emax (Cannabinoid receptor 2 [4]): 66.7% | inhibition (Cannabinoid receptor 2 [6]): < 50% | Activity (Cannabinoid receptor 1 [7]): < 50%

N=C(N)NCCCCCn1c(C(=O)NC23CC4CC(CC(C4)C2)C3)cc2ccccc21
Activity (Cannabinoid receptor 2 [8]): < 50% | inhibition at 10 min, 10 µM [1]: < 50% | inhibition (Cannabinoid receptor 2 [6]): < 50% | Activity (Cannabinoid receptor 1 [7]): < 50%

NCCCCCn1c(C(=O)NC23CC4CC(CC(C4)C2)C3)cc2ccccc21
inhibition at 10 min, 10 µM [1]: < 50% | EC50 (Cannabinoid receptor 2 [2]): 8600 nM | Emax (Cannabinoid receptor 2 [4]): 93.3% | inhibition (Cannabinoid receptor 2 [6]): < 50% | Activity (Cannabinoid receptor 1 [7]): < 50%

N#CCn1cc(C(=O)NC23CC4CC(CC(C4)C2)C3)c2ccccc21
inhibition at 10 min, 10 µM [1]: < 50% | EC50 (Cannabinoid receptor 2 [2]): 410 nM | Emax (Cannabinoid receptor 2 [4]): 66.3% | inhibition (Cannabinoid receptor 2 [6]): < 50% | Activity (Cannabinoid receptor 1 [7]): < 50%

O=C(NC12CC3CC(CC(C3)C1)C2)c1cc2ccccc2n1CCCCCO
inhibition at 10 min, 10 µM [1]: < 50% | EC50 (Cannabinoid receptor 2 [2]): 100 nM | Emax (Cannabinoid receptor 2 [4]): 70% | inhibition (Cannabinoid receptor 2 [6]): < 50% | Activity (Cannabinoid receptor 1 [7]): < 50%

O=C(NC1CCCC1)c1cc2ccccc2n1CCCCCO
Activity (Cannabinoid receptor 2 [8]): < 50% | inhibition at 10 min, 10 µM [1]: < 50% | inhibition (Cannabinoid receptor 2 [6]): < 50% | Activity (Cannabinoid receptor 1 [7]): < 50%

O=C(NC12CC3CC(CC(C3)C1)C2)c1cc2ccccc2n1CCCCC(F)F
inhibition at 10 min, 10 µM [1]: < 50% | EC50 (Cannabinoid receptor 2 [2]): 92 nM | Emax (Cannabinoid receptor 2 [4]): 60% | inhibition (Cannabinoid receptor 2 [6]): < 50% | Activity (Cannabinoid receptor 1 [7]): < 50%

NCCCCn1c(C(=O)NC23CC4CC(CC(C4)C2)C3)cc2ccccc21
inhibition at 10 min, 10 µM [1]: < 50% | EC50 (Cannabinoid receptor 2 [2]): 4700 nM | Emax (Cannabinoid receptor 2 [4]): 86.7% | inhibition (Cannabinoid receptor 2 [6]): < 50% | Activity (Cannabinoid receptor 1 [7]): < 50%

C[S+]([O-])c1cccc2c(C(=O)NC34CC5CC(CC(C5)C3)C4)cn(CCN3CCOCC3)c12 (configuration not stated)
Activity (Cannabinoid receptor 2 [8]): < 50% | inhibition at 10 min, 10 µM [1]: < 50% | inhibition (Cannabinoid receptor 2 [6]): < 50% | Activity (Cannabinoid receptor 1 [7]): < 50%

COCCCCCn1cc(C(=O)NC23CC4CC(CC(C4)C2)C3)c2ccccc21
inhibition at 10 min, 10 µM [1]: < 50% | EC50 (Cannabinoid receptor 2 [2]): 82 nM | Emax (Cannabinoid receptor 2 [4]): 70% | inhibition (Cannabinoid receptor 2 [6]): < 50% | Activity (Cannabinoid receptor 1 [7]): < 50%

O=CCCCCn1c(C(=O)NC23CC4CC(CC(C4)C2)C3)cc2ccccc21
inhibition at 10 min, 10 µM [1]: < 50% | EC50 (Cannabinoid receptor 2 [2]): 180 nM | Emax (Cannabinoid receptor 2 [4]): 73.3% | inhibition (Cannabinoid receptor 2 [6]): < 50% | Activity (Cannabinoid receptor 1 [7]): < 50%

O=C(NC12CC3CC(CC(C3)C1)C2)c1cc2ccccc2n1CCCCCF
inhibition at 10 min, 10 µM [1]: < 50% | EC50 (Cannabinoid receptor 2 [2]): 140 nM | Emax (Cannabinoid receptor 2 [4]): 53.3% | inhibition (Cannabinoid receptor 2 [6]): < 50% | Activity (Cannabinoid receptor 1 [7]): < 50%

O=C(NC12CC3CC(CC(C3)C1)C2)c1cc2ccccc2n1CCN1CCOC1=O
inhibition at 10 min, 10 µM [1]: < 50% | EC50 (Cannabinoid receptor 2 [2]): 220 nM | Emax (Cannabinoid receptor 2 [4]): 66.7% | inhibition (Cannabinoid receptor 2 [6]): < 50% | Activity (Cannabinoid receptor 1 [7]): < 50%

O=C(NC1CCCCC1)c1cc2ccccc2n1CCCCCO
inhibition at 10 min, 10 µM [1]: < 50% | EC50 (Cannabinoid receptor 2 [2]): 420 nM | Emax (Cannabinoid receptor 2 [4]): 50% | inhibition (Cannabinoid receptor 2 [6]): < 50% | Activity (Cannabinoid receptor 1 [7]): < 50%

N#CCCn1cc(C(=O)NC23CC4CC(CC(C4)C2)C3)c2ccccc21
inhibition at 10 min, 10 µM [1]: < 50% | EC50 (Cannabinoid receptor 2 [2]): 180 nM | Emax (Cannabinoid receptor 2 [4]): 73.3% | inhibition (Cannabinoid receptor 2 [6]): < 50% | Activity (Cannabinoid receptor 1 [7]): < 50%
